Results as given in ChEMBL document CHEMBL5236572, “Bioactive Aurones, Indanones, and Other Hemiindigoid Scaffolds: Medicinal Chemistry and Photopharmacology Perspectives” (J Med Chem, 2022).
Converted amounts (≈) assume the structure as drawn. One block for each compound: values may come before it.

Tests used:
[1] = test system: Human immunodeficiency virus 1; assay: Antiviral activity against HIV-1 infected in human C8166 cells assessed as reduction in virus-induced cytopathic effect by MTT assay; format: functional, organism-based; settings: Human immunodeficiency virus 1, C8166
Tyrosinase [2] = target: T1, Tyrosinase (Agaricus bisporus, UniProt O42713); assay: Inhibition of Agaricus bisporus tyrosinase using L-DOPA as substrate incubated for 10 mins by spectrophotometric analysis
T1 sequence (O42713 whole entry): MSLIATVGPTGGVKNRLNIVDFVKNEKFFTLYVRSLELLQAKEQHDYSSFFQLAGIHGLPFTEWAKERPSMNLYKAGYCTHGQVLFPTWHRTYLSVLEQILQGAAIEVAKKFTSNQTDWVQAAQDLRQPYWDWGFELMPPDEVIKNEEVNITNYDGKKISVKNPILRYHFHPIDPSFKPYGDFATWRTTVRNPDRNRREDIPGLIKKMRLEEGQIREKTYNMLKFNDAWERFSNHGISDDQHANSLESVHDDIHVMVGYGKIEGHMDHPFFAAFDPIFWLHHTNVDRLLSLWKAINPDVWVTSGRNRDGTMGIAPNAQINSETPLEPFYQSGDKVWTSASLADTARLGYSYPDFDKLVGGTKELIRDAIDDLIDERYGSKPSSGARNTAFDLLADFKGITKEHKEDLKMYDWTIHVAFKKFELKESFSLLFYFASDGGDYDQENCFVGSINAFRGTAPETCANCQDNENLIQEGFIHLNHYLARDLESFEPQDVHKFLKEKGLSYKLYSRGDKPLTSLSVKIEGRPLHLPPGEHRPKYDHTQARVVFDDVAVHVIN

[3] = Inhibition of Polyporus arcularius tyrosinase using L-DOPA as substrate incubated for 10 mins by spectrophotometric analysis
NCI/ADR-RES = assay: Antiproliferative activity against multi drug resistant human NCI-ADR-RES cells assessed as inhibition of cell proliferation incubated for 72 hrs by MTT assay; format: functional, cell-based
MES-SA/Dx5 = assay: Antiproliferative activity against multi drug resistant human MES-SA/Dx5 cells assessed as inhibition of cell proliferation incubated for 72 hrs by MTT assay; format: functional, cell-based; settings: MES-SA/Dx5, 72 h
[4] = Antiproliferative activity against doxorubicin resistant human MDA-MB-231-Dox cells assessed as inhibition of cell proliferation incubated for 72 hrs by MTT assay; format: functional, cell-based
HL60/ADR = assay: Antiproliferative activity against drug resistant human HL60/ADR cells assessed as inhibition of cell proliferation incubated for 72 hrs by MTT assay; format: functional, cell-based
[5] = Antiproliferative activity against multidrug resistant human CEM/VLB100 cells assessed as inhibition of cell proliferation incubated for 72 hrs by MTT assay; format: functional, cell-based; settings: CEM/VLB100, 72 h
KB 3-1 = assay: Antiproliferative activity against multidrug resistant human KB-3-1 cells assessed as inhibition of cell proliferation incubated for 72 hrs by MTT assay; format: functional, cell-based; settings: KB 3-1, 72 h
[6] = Antiproliferative activity against multidrug resistant human MV522/MDR1 cells assessed as inhibition of cell proliferation incubated for 72 hrs by MTT assay; format: functional, cell-based; settings: MV522/MDR1, 72 h
Tubulin [7] = target: Tubulin (Bos taurus, UniProt Q6B856+Q862L2+Q862F3); assay: Inhibition of bovine brain tubulin polymerization preincubated for 30 mins followed by GTP addition and measured after 20 mins by spectrophotometric analysis
[8] = Inhibition of Saccharomyces cerevisiae full-length ai5gamma intron self-splicing by fluorimetric assay
Candida parapsilosis = assay: Antifungal activity against Candida parapsilosis assessed as reduction in fungal growth; format: functional; settings: Lodderomyces parapsilosis
[9] = target: Amyloid-beta precursor protein (Homo sapiens, UniProt P05067); assay: Binding affinity to human brain homogenate amyloid beta by radioligand competition binding assay; format: tissue-based
[10] = target: Serine/threonine-protein kinase pim-1 (Homo sapiens, UniProt P11309); assay: Inhibition of PIM1 (unknown origin) using poly-Glu-Tyr (4:1) as substrate in presence of [gamma-33P-ATP] incubated for 2 hrs by radiometric kinase assay
[11] = target: Glycogen synthase kinase-3 beta (Homo sapiens, UniProt P49841); assay: Inhibition of recombinant GSK-3beta (unknown origin) using GS peptide as substrate in presence of ATP incubated for 1 hrs by ADP-Glo kinase assay
Tyrosinase [12] = target: T1, Tyrosinase; assay: Inhibition of mushroom tyrosinase using L-tyrosine as substrate incubated for 30 mins by spectrophotometric analysis
[13] = target: T2, Amine oxidase [flavin-containing] A (Homo sapiens, UniProt P21397); assay: Inhibition of recombinant human MAO-A assessed as inhibition of 4-hydroxyquinoline formation using kynuramine as substrate incubated for 20 mins by fluorescence assay
T2 sequence (P21397 whole entry): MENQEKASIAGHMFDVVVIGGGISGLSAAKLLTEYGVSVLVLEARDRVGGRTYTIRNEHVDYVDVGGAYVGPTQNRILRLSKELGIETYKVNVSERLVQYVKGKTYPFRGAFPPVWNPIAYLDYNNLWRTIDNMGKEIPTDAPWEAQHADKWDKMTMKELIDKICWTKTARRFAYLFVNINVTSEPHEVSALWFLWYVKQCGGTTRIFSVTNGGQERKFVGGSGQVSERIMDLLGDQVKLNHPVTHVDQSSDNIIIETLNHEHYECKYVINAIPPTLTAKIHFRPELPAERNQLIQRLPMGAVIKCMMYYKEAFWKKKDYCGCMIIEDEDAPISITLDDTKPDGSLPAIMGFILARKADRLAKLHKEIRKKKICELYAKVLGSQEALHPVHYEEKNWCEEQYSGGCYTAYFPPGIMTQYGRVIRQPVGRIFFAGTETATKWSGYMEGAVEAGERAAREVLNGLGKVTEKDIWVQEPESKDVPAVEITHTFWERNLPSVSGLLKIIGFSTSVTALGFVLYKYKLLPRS

[14] = target: T3, Amine oxidase [flavin-containing] B (Homo sapiens, UniProt P27338); assay: Inhibition of recombinant human MAO-B assessed as inhibition of 4-hydroxyquinoline formation using kynuramine as substrate incubated for 20 mins by fluorescence assay
T3 sequence (P27338 whole entry): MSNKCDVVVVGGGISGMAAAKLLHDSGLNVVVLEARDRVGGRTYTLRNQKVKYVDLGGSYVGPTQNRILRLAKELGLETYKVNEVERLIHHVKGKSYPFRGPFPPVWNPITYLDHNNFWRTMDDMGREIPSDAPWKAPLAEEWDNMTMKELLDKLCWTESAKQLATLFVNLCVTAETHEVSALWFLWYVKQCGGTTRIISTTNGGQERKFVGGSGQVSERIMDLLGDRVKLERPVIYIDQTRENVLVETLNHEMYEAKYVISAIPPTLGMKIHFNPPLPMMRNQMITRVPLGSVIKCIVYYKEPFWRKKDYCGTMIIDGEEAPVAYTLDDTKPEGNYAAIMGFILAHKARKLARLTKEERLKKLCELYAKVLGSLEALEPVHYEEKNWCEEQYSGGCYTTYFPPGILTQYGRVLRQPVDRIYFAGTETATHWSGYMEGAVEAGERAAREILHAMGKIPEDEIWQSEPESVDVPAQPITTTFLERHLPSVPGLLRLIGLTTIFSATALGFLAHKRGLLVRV

Tyrosinase [15] = target: T1, Tyrosinase; assay: Inhibition of mushroom tyrosinase using L-DOPA as substrate preincubated for 10 mins followed by substrate addition and measured after 1 mins by spectrophotometric analysis
Tubulin [16] = target: Tubulin (Sus scrofa, UniProt P02554+P02550); assay: Inhibition of porcine brain tubulin polymerization preincubated for 1 mins followed by GTP addition and measured for 60 mins at 1 min interval by fluorescence assay
HeLa = assay: Antiproliferative activity against human HeLa cells assessed as reduction in cell viability incubated for 48 hrs by MTT assay; format: functional, cell-based
A549 = assay: Antiproliferative activity against human A549 cells assessed as reduction in cell viability incubated for 48 hrs by MTT assay; format: functional, cell-based; settings: A549, 48 h
Bel-7402 = assay: Antiproliferative activity against human Bel-7402 cells assessed as reduction in cell viability incubated for 48 hrs by MTT assay; format: functional, cell-based; settings: Bel-7402, 48 h
PC-3 = assay: Antiproliferative activity against human PC-3 cells assessed as reduction in cell viability incubated for 48 hrs by MTT assay; format: functional, cell-based; settings: PC-3, 48 h
MDA-MB-231 = assay: Antiproliferative activity against human MDA-MB-231 cells assessed as reduction in cell viability incubated for 48 hrs by MTT assay; format: functional, cell-based; settings: MDA-MB-231, 48 h
[17] = target: Retinoic acid receptor alpha (Homo sapiens, UniProt P10276); assay: Antagonist activity at Gal4-RARalpha transfected in HEK293 cells assessed as atRA-induced RARalpha transactivation and measured after 6 hrs by Dual-Light chemiluminiscence assay; format: cell-based
Retinoic acid receptor alpha, sequence (P10276 whole entry, the tested form may be a part): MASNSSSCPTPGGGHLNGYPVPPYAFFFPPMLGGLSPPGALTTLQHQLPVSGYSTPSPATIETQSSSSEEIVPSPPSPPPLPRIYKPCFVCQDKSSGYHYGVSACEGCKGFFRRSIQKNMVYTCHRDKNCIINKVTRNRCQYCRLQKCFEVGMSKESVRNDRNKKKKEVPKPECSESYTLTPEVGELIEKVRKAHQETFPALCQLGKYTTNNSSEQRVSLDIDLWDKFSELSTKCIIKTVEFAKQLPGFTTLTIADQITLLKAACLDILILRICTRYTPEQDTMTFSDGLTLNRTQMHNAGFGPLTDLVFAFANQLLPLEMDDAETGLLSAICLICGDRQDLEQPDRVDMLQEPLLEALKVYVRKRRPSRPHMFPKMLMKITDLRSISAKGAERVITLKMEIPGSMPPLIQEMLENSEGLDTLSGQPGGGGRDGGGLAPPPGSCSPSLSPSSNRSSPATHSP

Glycogen synthase kinase-3 beta, sequence (P49841 whole entry): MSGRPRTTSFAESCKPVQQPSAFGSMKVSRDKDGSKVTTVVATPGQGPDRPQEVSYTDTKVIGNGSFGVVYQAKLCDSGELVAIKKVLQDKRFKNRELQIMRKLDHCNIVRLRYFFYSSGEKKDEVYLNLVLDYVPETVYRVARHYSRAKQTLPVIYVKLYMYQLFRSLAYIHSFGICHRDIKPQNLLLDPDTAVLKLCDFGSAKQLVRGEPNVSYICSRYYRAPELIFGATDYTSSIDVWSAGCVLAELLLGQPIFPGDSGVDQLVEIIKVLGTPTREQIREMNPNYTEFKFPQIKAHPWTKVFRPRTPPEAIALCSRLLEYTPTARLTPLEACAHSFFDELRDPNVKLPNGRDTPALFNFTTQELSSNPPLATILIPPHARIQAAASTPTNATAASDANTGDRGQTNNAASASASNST
Amyloid-beta precursor protein, sequence (P05067 whole entry): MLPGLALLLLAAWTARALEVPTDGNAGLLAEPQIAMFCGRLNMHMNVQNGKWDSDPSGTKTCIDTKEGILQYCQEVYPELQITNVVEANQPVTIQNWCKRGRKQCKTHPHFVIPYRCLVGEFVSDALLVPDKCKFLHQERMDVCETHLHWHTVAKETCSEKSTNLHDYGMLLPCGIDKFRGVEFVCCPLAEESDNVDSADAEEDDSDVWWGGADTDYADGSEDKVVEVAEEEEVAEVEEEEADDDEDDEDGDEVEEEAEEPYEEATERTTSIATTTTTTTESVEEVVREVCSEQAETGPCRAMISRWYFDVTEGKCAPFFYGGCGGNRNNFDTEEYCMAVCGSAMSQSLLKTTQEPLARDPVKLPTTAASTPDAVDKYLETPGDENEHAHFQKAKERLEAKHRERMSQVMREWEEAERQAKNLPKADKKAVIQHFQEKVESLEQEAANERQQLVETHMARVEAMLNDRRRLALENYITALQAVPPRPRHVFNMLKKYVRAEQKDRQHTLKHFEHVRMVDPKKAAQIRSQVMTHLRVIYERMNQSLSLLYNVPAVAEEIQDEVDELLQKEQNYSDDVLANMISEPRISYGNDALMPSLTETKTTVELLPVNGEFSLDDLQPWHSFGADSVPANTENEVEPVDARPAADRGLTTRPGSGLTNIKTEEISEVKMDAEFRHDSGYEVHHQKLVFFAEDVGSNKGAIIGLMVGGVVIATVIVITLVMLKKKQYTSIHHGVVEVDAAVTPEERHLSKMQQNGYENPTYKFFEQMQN
Serine/threonine-protein kinase pim-1, sequence (P11309 whole entry): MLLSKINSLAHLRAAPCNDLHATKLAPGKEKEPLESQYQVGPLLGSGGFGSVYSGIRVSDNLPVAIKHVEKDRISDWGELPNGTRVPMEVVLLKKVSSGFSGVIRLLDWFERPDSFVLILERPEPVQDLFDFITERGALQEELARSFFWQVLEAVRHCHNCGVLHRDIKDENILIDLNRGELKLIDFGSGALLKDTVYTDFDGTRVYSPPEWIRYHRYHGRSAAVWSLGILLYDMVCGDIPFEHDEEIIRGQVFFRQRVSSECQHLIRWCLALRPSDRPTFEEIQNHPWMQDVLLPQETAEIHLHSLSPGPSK

SMILES: O=C1/C(=C/c2ccc(O)c(O)c2)Oc2c1ccc(O)c2O
- EC50 [1]: 12000 nM

- IC50 (Tyrosinase [2]): 4000 nM
- IC50 [3]: 34000 nM
SMILES: O=C1/C(=C/c2ccc(O)cc2O)Oc2cccc(O)c21

- IC50 (HL60/ADR): 2 nM
- IC50 (KB 3-1): 2 nM
- IC50 (Tubulin [7]): 1700 nM
SMILES: COc1cc2c(c(N)c1OC)C(=O)/C(=C/c1cc(C)c(O)c(C)c1)C2
- IC50 (NCI/ADR-RES): 2 nM
- IC50 (MES-SA/Dx5): 2 nM
- IC50 [4]: 2 nM
- IC50 [5]: 2 nM
- IC50 [6]: 2 nM

- Ki [8]: 5800 nM
- MIC (Candida parapsilosis): 30 µM (≈ 9.07 µg/mL)
SMILES: O=C1/C(=C/c2cc(O)c(O)c(O)c2)Oc2cc(O)cc(O)c21

- Ki [9]: 100 nM
SMILES: CN(C)c1ccc(/C=C2\Cc3cc(I)ccc3C2=O)cc1

- IC50 [10]: 8800 nM
SMILES: COc1cc(O)c2c(c1)O/C(=C\c1c[nH]c3nc(Cl)ccc13)C2=O

- IC50 [11]: 450 nM
SMILES: O=C1/C(=C/c2c[nH]c3ncccc23)Oc2cc(OCc3cccc(F)c3)ccc21

- IC50 (Tyrosinase [12]): 150 nM
SMILES: O=C1/C(=C/c2ccc(O)cc2O)Cc2ccc3ccccc3c21

- IC50 [13]: 180 nM
- IC50 [14]: 40 nM
SMILES: COc1ccc2c(c1)C/C(=C\c1ccc(Br)o1)C2=O

- IC50 (Tyrosinase [15]): 8120 nM
SMILES: CN(C)c1ccc(/C=C2\Cc3ccccc3C2=O)c([N+](=O)[O-])c1

- IC50 (Tubulin [16]): 7560 nM
- IC50 (HeLa): 170 nM
- IC50 (A549): 170 nM
- IC50 (Bel-7402): 170 nM
- IC50 (PC-3): 170 nM
- IC50 (MDA-MB-231): 170 nM
SMILES: COc1ccc(/C=C2\Cc3c(cc(OC)c(OC)c3OC)C2=O)cc1O

- IC50 [11]: 310 nM
SMILES: CN(Cc1ccccc1)Cc1c(O)ccc2c1O/C(=C\c1ccc3c(c1)OCO3)C2=O

- IC50 [17]: 4420 nM
SMILES: COCCOCOc1cc2c(cc1C13CC4CC(CC(C4)C1)C3)C(=O)/C(=C/c1ccc(C(=O)O)cc1)O2
